Experimental data published in patent publication US7390873B2, “Antimicrobial cationic peptides” (University of British Columbia, priority 1995, dated 2008).
Values after ≈ are worked out from the molar mass of the structure shown. Where two headings read alike, the source gives them in different places. Where a SMILES comes first, the peptide text is derived from it. Where no end group is shown, it is not given here. [ ]: non-standard residue; d: D form.

Key:
[1] = test system: human red blood cells; experiment: Lysis of red blood cells; type: cell-based
Protocol: Freshly collected human blood was mixed with heparin and centrifuged to remove the buffy coat. The resulting erythrocytes were washed three times in 0.85% saline and stored at 4° C. Serial dilutions of the peptides in saline were prepared in round bottomed microtitre plates using 100 μl volumes. Red blood cells were diluted with saline to 1/25 of the packed volume of cells and 50 μl of red blood cells were added to each well. Plates were incubated while rocking at 37° C., and the concentration of peptide required for red blood cell lysis of more than 80% of cells (i.e., visible lysis) was determined at 4 and 24 hours (Table 7).

[2] = test system: Pseudomonas aeruginosa K799; type: cell-based; conditions: for MIC P. aeruginosa: K799, 24 h
Protocol: (§1) Any of the art-known methods for measuring antimicrobial activity of peptides can be used in characterizing the peptides of the invention. In these examples, conventional methods were used to determine the minimal inhibitory concentration (MIC) of a peptide in a liquid medium (Amsterdam. Antibiotics in Laboratory Medicine, Williams and Wilkins, Baltimore (1991) 72-78). Briefly, overnight cultures of the test organisms (described below) were diluted to produce an inoculum containing approximately 10^4 to 10^5 organisms. The inoculum size was confirmed by counting the number of organisms on plates that were inoculated at the same time as the liquid cultures.
(§2) The concentration of peptide was measured by assaying for free amino groups using a dinitrophenylation assay, with polymyxin B serving as a standard. Doubling dilutions of peptide were performed (32 μg/ml-0.25 μg/ml) in 100 μl volumes in a 96-well mictrotiter plate, and all wells were subsequently inoculated with the diluted culture of the test organism. After 24 hours of incubation at 37° C., the assay was read. The MIC value is the concentration of peptide at which the growth of the test organism was reduced by 50%. The number of cells in the culture inoculum was calculated from the plate count after incubating the plate for 24 hours at 37° C. The medium used for cell culture and dilution in this assay was Luria broth (LB). Each peptide was tested three times against each organism, and the MIC values presented below are the mean values of the three experiments.

[3] = test system: Staphylococcus epidermidis C621; type: cell-based; conditions: for MIC S. epidermidis: C621, 24 h
Protocol: as §1, §2

[4] = test system: E. coli UB1005; type: cell-based; conditions: for MIC E. coli: UB1005, 24 h
Protocol: as §1, §2

[5] = test system: Staphylococcus aureus RN4220; type: cell-based; conditions: for MIC S. aureus: RN4220, 24 h
Protocol: as §1, §2

[6] = test system: Candida albicans C627; type: cell-based; conditions: for MIC C. albicans: C627, 24 h
[7] = Mortality after injection of peptide in mice; type: in vivo; conditions: 200 μg peptide IP
Protocol: The ability of indolicidin and variants to protect against LPS-induced endotoxemia was assessed in vivo. Mice (8-10 weeks old) were injected intraperitoneally (IP) with 20 mg D-galactosamine (Dgal) to sensitive them to LPS according to the model of Galanos (Galanos, C., M. A., Freudenberg and W. Reutter, 1979, Galactosamine sensitization to the lethal effects of endotoxin. Proc. Natl. Acad. Sci. USA 76:5939), followed by 200 μg peptide in 100 μl. Immediately afterwards LPS (10 μg) in 100 μl was injected. The mice were observed 24 hours after injections and survivors noted. […] When Dgal and LPS were also injected, that 200 μg of indolicidin reduced mortality reduced at 24 hours from 100% in controls to 60%.

[8] = Dansyl polymyxin B (DPX) displacement assay; type: binding, P. aeruginosa; conditions: concentration at which 50% of the maximal DPX was displaced from the LPS; read-out: I50 of DPX displacement
Protocol: Peptides that bind lipopolysaccharide are thought to potentially function as anti-endotoxins. The binding of various CP peptides to P. aeruginosa H103 lipopolysaccharide (LPS) was measured in a dansyl polymyxin B (DPX) displacement assay as described by Moore et al. (AAC, 26 (1986) 496-500). […] Purified LPS was saturated with DPX by titrating LPS with samples of DPX until maximum fluorescence was reached. Fluorescence was measured in a Perkin-Elmer 650-10S fluorescence spectrophotometer and displacement of DPX was measured as a decrease in fluorescence upon the addition of an antimicrobial peptide.
Each peptides I50 value, which is the concentration at which 50% of the maximal DPX was displaced from the LPS, is shown. Also shown is the Imax value, which represents the maximum displacement of […] expressed as a percentage, where 100% indicates displacement of all bound DPX.

[9] = test system: all of the organisms tested; experiment: MIC assay, summary over the organisms tested; type: cell-based; conditions: range over organisms
Protocol: as §1
as §2, with “The medium used for cell culture and dilution in this assay was Luria broth (LB). Each peptide was tested three times against each organism, and the MIC values presented below are the mean values of the three experiments.” left out
MIC values also were determined for various derivatives of indolicidin, CP-11, and CP-13. […]

Row | Compound | MIC P. aeruginosa [2] | MIC S. epidermidis [3] | MIC E. coli [4] | MIC S. aureus [5] | MIC C. albicans [6] | further results
1 | CC[C@H](C)[C@H](N)C(=O)N[C@@H](CC(C)C)C(=O)N1CCC[C@H]1C(=O)N[C@@H](Cc1c[nH]c2ccccc12)C(=O)N[C@@H](CCCCN)C(=O)N[C@@H](Cc1c[nH]c2ccccc12)C(=O)N1CCC[C@H]1C(=O)N[C@@H](Cc1c[nH]c2ccccc12)C(=O)N[C@@H](Cc1c[nH]c2ccccc12)C(=O)N1CCC[C@H]1C(=O)N[C@@H](Cc1c[nH]c2ccccc12)C(=O)N[C@@H](CCCNC(=N)N)C(=O)N[C@@H](CCCNC(=N)N)C(=O)OC [Indolicidin-C] | >32 µg/mL | 1 µg/mL (≈ 0.52 µM) | 4 µg/mL (≈ 2.08 µM) | 4 µg/mL (≈ 2.08 µM) | >32 µg/mL | Lowest concentration causing lysis, 4 hours ([1]; lysis of more than 80% of cells (visible lysis), 37° C., 4 hours): 32 µg/mL; Lowest concentration causing lysis, 24 hours ([1]; lysis of more than 80% of cells (visible lysis), 37° C., 24 hours): 32 µg/mL
2 | CC[C@@H](C)[C@@H](N)C(=O)N[C@@H](CC(C)C)C(=O)N1CCC[C@H]1C(=O)N[C@@H](Cc1c[nH]c2ccccc12)C(=O)N[C@@H](CCCCN)C(=O)N[C@@H](Cc1c[nH]c2ccccc12)C(=O)N1CCC[C@H]1C(=O)N[C@@H](Cc1c[nH]c2ccccc12)C(=O)N[C@@H](Cc1c[nH]c2ccccc12)C(=O)N1CCC[C@H]1C(=O)N[C@@H](Cc1c[nH]c2ccccc12)C(=O)N[C@@H](CCCNC(=N)N)C(=O)N[C@@H](CCCNC(=N)N)C(=O)O [Indolicidin-D] | >32 µg/mL | 2 µg/mL (≈ 1.05 µM) | 8 µg/mL (≈ 4.19 µM) | 4 µg/mL (≈ 2.1 µM) | >32 µg/mL | Mortality after injection of peptide [7]: did not cause mortality
3 | ILKKWPWWPWRRK-NH2 [CP-11N] |  | 8 µg/mL | 1 µg/mL | >32 µg/mL |  | 
4 | ILPWKWPWYVRR [CP-IA] | >32 µg/mL | >32 µg/mL | >32 µg/mL | >32 µg/mL | >32 µg/mL | 
5 | CC[C@H](C)[C@H](N)C(=O)N[C@@H](CC(C)C)C(=O)N1CCC[C@H]1C(=O)N[C@@H](Cc1c[nH]c2ccccc12)C(=O)N[C@@H](CCCCN)C(=O)N[C@@H](Cc1c[nH]c2ccccc12)C(=O)N1CCC[C@H]1C(=O)N[C@@H](Cc1c[nH]c2ccccc12)C(=O)N[C@@H](Cc1c[nH]c2ccccc12)C(=O)N1CCC[C@H]1C(=O)N[C@@H](Cc1c[nH]c2ccccc12)C(=O)N[C@@H](CCCNC(=N)N)C(=O)N[C@@H](CCCNC(=N)N)C(=O)O [Indolicidin-R, reference compound] |  |  |  |  |  | MIC P. aeruginosa K799 [2]: >32 µg/mL; MIC S. epidermidis C621 [3]: 16 µg/mL (≈ 8.39 µM); MIC E.coli UB1005 [4]: 32 µg/mL (≈ 16.8 µM); MIC S. aureus RN4220 [5]: 16 µg/mL (≈ 8.39 µM); MIC C. albicans C627 [6]: >32 µg/mL
6 | CC[C@@H](C)[C@@H](N)C(=O)N[C@@H](CC(C)C)C(=O)N1CCC[C@H]1C(=O)N[C@@H](Cc1c[nH]c2ccccc12)C(=O)N[C@@H](CCCCN)C(=O)N[C@@H](Cc1c[nH]c2ccccc12)C(=O)N1CCC[C@H]1C(=O)N[C@@H](Cc1c[nH]c2ccccc12)C(=O)N[C@@H](Cc1c[nH]c2ccccc12)C(=O)N1CCC[C@H]1C(=O)N[C@@H](Cc1c[nH]c2ccccc12)C(=O)N[C@@H](CCCNC(=N)N)C(=O)N[C@@H](CCCNC(=N)N)C(=O)OC [Indolicidin-DC] | >32 µg/mL | 2 µg/mL (≈ 1.04 µM) | 4 µg/mL (≈ 2.08 µM) | 8 µg/mL (≈ 4.16 µM) | >32 µg/mL | 
7 | [Mg+2] [Mg^2+ ions, Mg^2+] |  |  |  |  |  | IC50 [8]: ~620 µM
8 | CC[C@@H](C)[C@@H](N)C(=O)N[C@@H](CC(C)C)C(=O)N[C@@H](CCCCN)C(=O)N[C@@H](CCCCN)C(=O)N[C@@H](Cc1c[nH]c2ccccc12)C(=O)N1CCC[C@H]1C(=O)N[C@@H](Cc1c[nH]c2ccccc12)C(=O)N[C@@H](Cc1c[nH]c2ccccc12)C(=O)N1CCC[C@H]1C(=O)N[C@@H](Cc1c[nH]c2ccccc12)C(=O)N[C@@H](CCCNC(=N)N)C(=O)N[C@@H](CCCNC(=N)N)C(=O)N[C@@H](CCCCN)C(=O)OC [CP-11DC] (H-[dI]LKKWPWWPWRRK-OMe; N-terminus assumed) | 4 µg/mL (≈ 2.11 µM) | 2 µg/mL (≈ 1.06 µM) | 4 µg/mL (≈ 2.11 µM) | 4 µg/mL (≈ 2.11 µM) | 8 µg/mL (≈ 4.22 µM) | 
9 | ILPWKKWPWWRWRR [CP-3R] |  |  |  |  |  | MIC P. aeruginosa K799 [2]: 8 µg/mL; MIC S. epidermidis C621 [3]: 4 µg/mL; MIC E.coli UB1005 [4]: 8 µg/mL; MIC S. aureus RN4220 [5]: 8 µg/mL; MIC C. albicans C627 [6]: > 32 µg/mL; Partial killing observed in dilutions down to ([6]; purified recombinant peptide, C. albicans C627): 8 µg/mL
10 | FFKKFPFFPFRRK [CP-24] | 32 µg/mL |  | 8 µg/mL | 8 µg/mL |  | 
11 | CC[C@H](C)[C@H](N)C(=O)N[C@@H](CC(C)C)C(=O)N[C@@H](CCCCN)C(=O)N[C@@H](CCCCN)C(=O)N[C@@H](Cc1c[nH]c2ccccc12)C(=O)N1CCC[C@H]1C(=O)N[C@@H](Cc1c[nH]c2ccccc12)C(=O)N[C@@H](Cc1c[nH]c2ccccc12)C(=O)N1CCC[C@H]1C(=O)N[C@@H](Cc1c[nH]c2ccccc12)C(=O)N[C@@H](CCCNC(=N)N)C(=O)N[C@@H](CCCNC(=N)N)C(=O)N[C@@H](CCCCN)C(=O)OC [CP-11C] (H-ILKKWPWWPWRRK-OMe) | 8 µg/mL (≈ 4.22 µM) | 1 µg/mL (≈ 0.528 µM) | 2 µg/mL (≈ 1.06 µM) | 8 µg/mL (≈ 4.22 µM) | 8 µg/mL (≈ 4.22 µM) | MIC values for all of the organisms tested [9]: 1 to 8 µg/mL; Lowest concentration causing lysis, 4 hours [1]: >128 µg/mL; Lowest concentration causing lysis, 24 hours [1]: 64 µg/mL
12 | ILKKWPWWPWKWKK [CP-13] | >32 µg/mL | 4 µg/mL | 8 µg/mL | >32 µg/mL | >32 µg/mL | Lowest concentration causing lysis, 4 hours [1]: >128 µg/mL; Lowest concentration causing lysis, 24 hours [1]: 128 µg/mL
13 | CC[C@@H](C)[C@@H](N)C(=O)N[C@@H](CC(C)C)C(=O)N[C@@H](CCCCN)C(=O)N[C@@H](CCCCN)C(=O)N[C@@H](Cc1c[nH]c2ccccc12)C(=O)N1CCC[C@H]1C(=O)N[C@@H](Cc1c[nH]c2ccccc12)C(=O)N[C@@H](Cc1c[nH]c2ccccc12)C(=O)N1CCC[C@H]1C(=O)N[C@@H](Cc1c[nH]c2ccccc12)C(=O)N[C@@H](CCCNC(=N)N)C(=O)N[C@@H](CCCNC(=N)N)C(=O)N[C@@H](CCCCN)C(=O)O [CP-11D] (H-[dI]LKKWPWWPWRRK-OH) | 4 µg/mL (≈ 2.13 µM) | 2 µg/mL (≈ 1.06 µM) | 4 µg/mL (≈ 2.13 µM) | 4 µg/mL (≈ 2.13 µM) | 8 µg/mL (≈ 4.25 µM) | Mortality after injection of peptide [7]: did not cause mortality
